Values joined by “and” are separate entries in the source; they are usually repeats but may differ in a detail not shown here. Identical values can stand only once.

For assay [1], the system named is Pim-3. The assay is described as follows: Gene expression of Pim-3 in epididymal adipose tissue of ZDF rats treated with anti-diabetic drugs (PPARγ agonists). Format: in vivo, rat. The following applies: ZDF rats 20 weeks old, 3 mg/kg/day for 14 weeks, single animals Rosi 1-5 vs ZDF 1-5. On the procedure:
(§1) Zucker Diabetic Fatty (ZDF/Gmi.TM.−fa/fa) male rats as well as their lean fa+/fa− counterparts, aged 5 weeks (control 1-5, ZDF 1-10)were obtained from Genetic Models Inc. (Indianapolis, Ind.). The rats were given free access to food and water. The ZDF animals were split into 2 groups: group 1(animals ZDF 1-5) was not treated with any agent, whereas the second group was treated for 14 weeks with the antidiabetic drug Rosiglitazone (3 mg/kg/day, animals 6-10, Rosi 1-5,). For the collection of epididymal fat pads and also blood samples, in each case 5 animals were sacrificed by cervical dislocation. To monitor the success of the antidiabetic treatment, HbA1c as marker of long-term blood glucose levels were measured by standard methods after finishing of the experiment.
Collection of epididymal adipose tissue, RNA isolation and Affymetrix experiments were performed as described in experiment 1. Data analysis included the comparison of expression data of samples derived from the lean control animals versus the untreated ZDF rats as well as the comparison of the expression data derived from Rosiglitazone treated ZDF animals versus non-treated ZDF animals. […] Fold changes of gene expression for Pim-3 were analyzed using the Affymetlrix qualifier AF086624_S_AT.

Assay [2] deals with ZDF rats. The assay is described as follows: HbA1c as marker of long-term blood glucose in ZDF rats treated with Rosiglitazone. Conditions: ZDF rats treated 14 weeks, 3 mg/kg/day, single animals R1-R5. It counts as in vivo, rat. On the procedure:
as §1

The test system of assay [3] is PIM-3. The assay is described as follows: Gene expression of PIM-3 in 3T3-L1 adipocytes treated with antidiabetic drugs (PPARγ agonists), Affymetrix array. It counts as cell-based, murine. On the procedure:
3T3-L1 preadipocytes were grown at 37° C. in 10% CO2 in Dulbecco's modified Eagle's medium (DMEM) containing 1 g/l glucose and 10% fetal calf serum (FCS). For differentiation into mature adipocytes, confluent preadipocytes were cultured for four days in DMEM supplemented with 4.5 g/l glucose, 10% FCS, 50 μg/ml ascorbic acid, 1 μM biotin, 17 μM pantothenic acid (=basal medium), 500 μM 3-isobutylmethylxanthine, 0.25 μM dexamethasone and 1 μg/ml human recombinant insulin. During the four day treatment the medium was changed once.
Differentiated 3T3-L1 cells were maintained in basal medium for one additional day and subsequently kept in serum-free basal medium for four hours. Then, PPARγ agonists diluted in basal medium were added to the adipocytes as described below centrations and conditions see table 5):
RNA was isolated using the TRIzol reagent (Life Technologies, Karlsruhe, Germany) and treated with DNase I by applying the DNA-free kit (Ambion, Austin, Tex., US).
Further purification of the RNA was achieved using the RNeasy mini kit (Qiagen, Hilden, Germany) and quality/quantity control was done with the 2100Bioanalyzer (Agilent, Böblingen, Germany). 10 μg of total RNA was converted into biotinylated cRNA according to the GeneChip expression analysis technical manual (Affymetrix, Santa Clara, Calif., US). Briefly, first and second strand synthesis was performed by applying the SuperScript double stranded cDNA synthesis kit (Life Technologies, Kardsruhe, Germany) and biotin labeled cRNA was produced with the BioArray RNA transcript labeling kit (Enzo Diagnostics, Framingdale, N.Y., US). 10 μg of cRNA was fragmented by heat, added to the GeneChip eukaryotic hybridization control solution (Affymetrix) and hybridized to a GeneChip MG-U74Av2 array (Affymetrix) by rotating for 16 hours at 45° C. Washing, staining and scanning of the array was carried outwith standard procedures using the hardware provided by Affymetrix. Raw data was analyzed by applying the microarray suite version 4.0.1 software (Affymetrix, see above).
The entire experiment was repeated twice to provide three biological replicates.
Data analysis including the estimation of fold changes was performed as described above. Fold change values for PIM-3 were obtained by comparing the compound treated samples against the untreated controls for each time point.

The mark [4] stands for this setting: 1 μM, 6 hours, Table 6a (replicate 1).
The mark [5] stands for this setting: 1 μM, 6 hours, Table b (replicate 2).
Where [6] appears, read: 1 μM, 6 hours, Table c (replicate 3).
Where [7] appears, read: 1 μM, 24 hours, Table 6a (replicate 1).
The mark [8] stands for this setting: 1 μM, 24 hours, Table b (replicate 2).
[9] abbreviates: 1 μM, 24 hours, Table c (replicate 3).
[10] abbreviates: 1 μM, 48 hours, Table 6a (replicate 1).
Where [11] appears, read: 1 μM, 48 hours, Table b (replicate 2).
Where [12] appears, read: 1 μM, 48 hours, Table c (replicate 3).
Setting [13] is: 5 μM, 6 hours, Table 6a (replicate 1).
Setting [14] is: 5 μM, 6 hours, Table b (replicate 2).
The mark [15] stands for this setting: 5 μM, 6 hours, Table c (replicate 3).
Where [16] appears, read: 5 μM, 24 hours, Table 6a (replicate 1).
Where [17] appears, read: 5 μM, 24 hours, Table b (replicate 2).
The mark [18] stands for this setting: 5 μM, 24 hours, Table c (replicate 3).
[19] abbreviates: 5 μM, 48 hours, Table 6a (replicate 1).
[20] abbreviates: 5 μM, 48 hours, Table b (replicate 2).
Where [21] appears, read: 5 μM, 48 hours, Table c (replicate 3).

For `CN(CCOc1ccc(CC2SC(=O)NC2=O)cc1)c1ccccn1` (centres unmarked) [Rosi, rosiglitazone], the “Fold change (Pim-3 gene expression, treated ZDF rats vs untreated ZDF rats)” value in assay [1] was 1.6 (2×) and 1.3 and 1.5 and 1.4. For the same compound, the “HbA1c (%)” value in assay [2] is 4.30% and 4.27% and 4.14% (2×) and 4.13%. In addition, the “Fold change (PIM-3 gene expression vs DMSO control)” value is reported as 2.1 in assay [3] (setting [4]); 1.5 in assay [3] (setting [5]); 2.0 in assay [3] (setting [6]); 2.9 in assay [3] (setting [7]); 2.2 in assay [3] (setting [8]); 1.9 in assay [3] (setting [9]). Also, the “Fold change (PIM-3 gene expression vs DMSO control)” value in assay [3] (setting [10]) was 2.6; in assay [3] (setting [11]), 2.0; in assay [3] (setting [12]) it was 2.1; in assay [3] (setting [13]), 2.2; in assay [3] (setting [14]) it was 1.3; in assay [3] (setting [15]), 2.2. For the same compound, the “Fold change (PIM-3 gene expression vs DMSO control)” value is 2.9 in assay [3] (setting [16]); 1.9 in assay [3] (setting [17]); 1.3 in assay [3] (setting [18]); 2.6 in assay [3] (setting [19]); 1.9 in assay [3] (setting [20]); 2.0 in assay [3] (setting [21]).
With `Cc1c(C)c2c(c(C)c1O)CCC(C)(COc1ccc(CC3SC(=O)NC3=O)cc1)O2` (centres unmarked) [Tro, troglitazone], the “Fold change (PIM-3 gene expression vs DMSO control)” value came out at 1.7 in assay [3] (setting [4]); 1.7 in assay [3] (setting [5]); 1.8 in assay [3] (setting [6]); 1.8 in assay [3] (setting [7]); 1.6 in assay [3] (setting [8]); 1.6 in assay [3] (setting [9]). For the same compound, the “Fold change (PIM-3 gene expression vs DMSO control)” value in assay [3] (setting [10]) was 1.8; in assay [3] (setting [11]), 1.6; in assay [3] (setting [12]) it was 1.6; in assay [3] (setting [13]), 2.1; in assay [3] (setting [14]) it was 1.7; in assay [3] (setting [15]), 2.3. The “Fold change (PIM-3 gene expression vs DMSO control)” value was 2.7 in assay [3] (setting [16]); 1.9 in assay [3] (setting [17]); 2.0 in assay [3] (setting [18]); 2.4 in assay [3] (setting [19]); 1.9 in assay [3] (setting [20]); 2.3 in assay [3] (setting [21]).

(Values after patent US7629126B2, “PIM-3 kinase as a target for type 2 diabetes mellitus” (Sanofi-Aventis Deutschland GmbH, priority 2002, dated 2009).)
